T/C data for 25 compounds are collected here from PubChem BioAssay AID256 (DTP/NCI, 2004).

The test system of this test is CD2F1 mice, L1210 leukemia ip, survival T/C. Briefly: NCI In Vivo Anticancer Drug Screen. Data for tumor model L1210 Leukemia (intraperitoneal) in CD2F1 (CDF1) mice. Conditions: higher = longer survival. As to the method: The antitumor activity of compounds was measured in mice bearing transplantable tumors. Survival or tumor size were measured and the results are expressed as the measurement made in the treated group (T) divided by the measurement made in the vehicle treated control group (C). The tumor model used in this assay is L1210 Leukemia (intraperitoneal) in CD2F1 (CDF1) mice

[1] abbreviates: endpoint: mean survival time, dose: 100.0 mg/kg/injection, schedule: Q04DX003 (ip), vehicle: saline with Tween-80.
[2] abbreviates: endpoint: mean survival time, dose: 200.0 mg/kg/injection, schedule: Q04DX003 (ip), vehicle: saline with Tween-80.
[3] abbreviates: endpoint: mean survival time, dose: 400.0 mg/kg/injection, schedule: Q04DX003 (ip), vehicle: saline with Tween-80.
[4] abbreviates: endpoint: mean survival time, dose: 100.0 mg/kg/injection, schedule: Q01DX009 (ip), vehicle: saline with Tween-80.
Setting [5] is: endpoint: mean survival time, dose: 200.0 mg/kg/injection, schedule: Q01DX009 (ip), vehicle: saline with Tween-80.
Where [6] appears, read: endpoint: mean survival time, dose: 400.0 mg/kg/injection, schedule: Q01DX009 (ip), vehicle: saline with Tween-80.
[7] abbreviates: endpoint: mean survival time, dose: 50.0 mg/kg/injection, schedule: Q01DX009 (ip), vehicle: saline.
[8] abbreviates: endpoint: mean survival time, dose: 100.0 mg/kg/injection, schedule: Q01DX009 (ip), vehicle: saline.
Where [9] appears, read: endpoint: mean survival time, dose: 12.5 mg/kg/injection, schedule: Q01DX009 (ip), vehicle: saline.
Setting [10] is: endpoint: mean survival time, dose: 25.0 mg/kg/injection, schedule: Q01DX009 (ip), vehicle: saline.
Where [11] appears, read: endpoint: mean survival time, dose: 50.0 mg/kg/injection, schedule: Q01DX009 (ip), vehicle: saline with Tween-80.

Where “and” joins values, the source holds several entries; their conditions need not be identical. Identical values can stand only once. Toxic doses and inconclusive results are not listed.

Regarding `O=c1nc(NC2CCCCCCCCCCC2)ccn1C1OC(CO)C(O)C1O` (stereo not given), the T/C is 101 % of control (endpoint: median survival time, dose: 12.5 mg/kg/injection, schedule: Q01DX005 (ip), vehicle: distilled water + Tween-80); 102 % of control (endpoint: median survival time, dose: 25.0 mg/kg/injection, schedule: Q01DX005 (ip), vehicle: distilled water + Tween-80); 105 % of control (endpoint: median survival time, dose: 50.0 mg/kg/injection, schedule: Q01DX005 (ip), vehicle: distilled water + Tween-80); 93 % of control (endpoint: median survival time, dose: 100.0 mg/kg/injection, schedule: Q01DX005 (ip), vehicle: distilled water + Tween-80); 86 % of control (endpoint: median survival time, dose: 200.0 mg/kg/injection, schedule: Q01DX005 (ip), vehicle: distilled water + Tween-80).
For `Cc1ccc(NC(=O)Nc2ccccc2F)cc1NC(=O)Nc1ccccc1F`, the T/C runs as follows: under setting [1], 100 % of control; under setting [2], 104 % of control; under setting [3], 100 % of control.
As to `CCOC(=O)c1ccnc2ccc(O)cc12`, the T/C runs as follows: under setting [4], 104 % of control; under setting [5], 93 % of control; under setting [6], 95 % of control.
Take `CNC(=O)Sc1nnnc2ccccc12`: the T/C is, setting by setting: under setting [1], 101 % of control; under setting [2], 93 % of control; under setting [3], 98 % of control.
With `[Cl][Pt+2][Cl].[NH-]C1CCCC2CCC[N-]C12` (stereo not given), the T/C (endpoint: mean survival time, dose: 100.0 mg/kg/injection, schedule: Q04DX002 (ip), vehicle: saline with Tween-80) is 105 % of control; the T/C (endpoint: mean survival time, dose: 200.0 mg/kg/injection, schedule: Q04DX002 (ip), vehicle: saline with Tween-80) is 121 % of control; the T/C (endpoint: mean survival time, dose: 400.0 mg/kg/injection, schedule: Q04DX002 (ip), vehicle: saline with Tween-80) was 110 % of control.
Take `CN(C)C(=O)SC1=C(c2c(Cl)cccc2Cl)C(=O)c2ccccc21`: the T/C is 112 % of control (endpoint: median survival time, dose: 25.0 mg/kg/injection, schedule: Q01DX009 (ip), vehicle: Klucel (hydroxypropylcellulose) (HPC)); 112 % of control (endpoint: median survival time, dose: 50.0 mg/kg/injection, schedule: Q01DX009 (ip), vehicle: Klucel (hydroxypropylcellulose) (HPC)); 104 % of control (endpoint: median survival time, dose: 100.0 mg/kg/injection, schedule: Q01DX009 (ip), vehicle: Klucel (hydroxypropylcellulose) (HPC)); 101 % of control (endpoint: median survival time, dose: 200.0 mg/kg/injection, schedule: Q01DX009 (ip), vehicle: Klucel (hydroxypropylcellulose) (HPC)); 108 % of control (endpoint: median survival time, dose: 400.0 mg/kg/injection, schedule: Q01DX009 (ip), vehicle: Klucel (hydroxypropylcellulose) (HPC)).
As to `CCCCCCCCCCCC1CCCC(C)N1` (stereo not given), the T/C (endpoint: mean survival time, dose: 50.0 mg/kg/injection, schedule: Q04DX002 (ip), vehicle: saline with Tween-80) is 98 % of control.
In the case of `CCC(=O)c1cc([N+](=O)[O-])ccc1NC(C)=O`, the T/C is 100 % of control under setting [1], 94 % of control under setting [2] and 88 % of control under setting [3].
Take `COC(=O)c1ccccc1NC(=O)/C=C/C(=O)O`: the T/C under setting [7] was 94 % of control; the T/C under setting [8] is 88 % of control; the T/C under setting [1] was 98 % of control; the T/C (endpoint: mean survival time, dose: 200.0 mg/kg/injection, schedule: Q01DX009 (ip), vehicle: saline) is 90 % of control; the T/C under setting [2] was 95 % of control.
Take `O=C(NC(CCO)C(=O)O)OCc1ccccc1` (stereo not given): the T/C is 95 % of control (endpoint: mean survival time, dose: 75.0 mg/kg/injection, schedule: Q04DX003 (ip), vehicle: saline); 98 % of control (endpoint: mean survival time, dose: 150.0 mg/kg/injection, schedule: Q04DX003 (ip), vehicle: saline); 101 % of control (endpoint: mean survival time, dose: 300.0 mg/kg/injection, schedule: Q04DX003 (ip), vehicle: saline).
`Cn1cnc([N+](=O)[O-])c1Sc1nc(N)nc2nc[nH]c12`: the T/C is, setting by setting: (endpoint: mean survival time, dose: 5.0 mg/kg/injection, schedule: Q03DX003 (ip), vehicle: Klucel (hydroxypropylcellulose) (HPC)) 153 % of control; (endpoint: mean survival time, dose: 10.0 mg/kg/injection, schedule: Q01DX007 (ip), vehicle: Klucel (hydroxypropylcellulose) (HPC)) 122 % of control; (endpoint: mean survival time, dose: 10.0 mg/kg/injection, schedule: Q03DX003 (ip), vehicle: Klucel (hydroxypropylcellulose) (HPC)) 160 % of control; (endpoint: mean survival time, dose: 20.0 mg/kg/injection, schedule: Q01DX007 (ip), vehicle: Klucel (hydroxypropylcellulose) (HPC)) 117 % of control; (endpoint: mean survival time, dose: 20.0 mg/kg/injection, schedule: Q03DX003 (ip), vehicle: Klucel (hydroxypropylcellulose) (HPC)) 154 % of control.
Turning to `C=C(Br)CNC(=O)OC`, the T/C runs as follows: under setting [9], 102 % of control; under setting [10], 104 % of control; under setting [7], 112 % of control; under setting [1], 96 % of control.
Consider `O.O.O=C(O)CC(=O)O.[NH-]C1CCCCC1[NH-].[Pt+2]` (stereo not given), for which the T/C (endpoint: mean survival time, dose: 12.5 mg/kg/injection, schedule: Q04DX003 (ip), vehicle: dextrose) was 98 % of control.
In the case of `CC(=O)OC1C(OC(C)=O)C(OC(C)=O)C2OC(C)(C)OC2C1OC(C)=O` (stereo not given), the T/C is 96 % of control (endpoint: mean survival time, dose: 100.0 mg/kg/injection, schedule: Q01DX009 (ip), vehicle: Klucel (hydroxypropylcellulose) (HPC)); 93 % of control (endpoint: mean survival time, dose: 200.0 mg/kg/injection, schedule: Q01DX009 (ip), vehicle: Klucel (hydroxypropylcellulose) (HPC)); 100 % of control (endpoint: mean survival time, dose: 400.0 mg/kg/injection, schedule: Q01DX009 (ip), vehicle: Klucel (hydroxypropylcellulose) (HPC)).
In the case of `CC(=O)CC(=O)c1cccnc1`, the T/C is, setting by setting: under setting [1], 103 % of control; under setting [2], 97 % of control; under setting [3], 101 % of control.
Turning to `Brc1ccccc1-c1ccccc1-c1ccccc1`, the T/C is 106 % of control under setting [4], 101 % of control under setting [5] and 101 % of control under setting [6].
As for `COC(=O)c1cc(Br)c(I)c([N+](=O)[O-])c1`, the T/C by setting is: under setting [4], 102 % of control; under setting [1], 95 % of control; under setting [5], 108 % of control; under setting [2], 106 % of control; under setting [6], 105 % of control; under setting [3], 97 % of control.
Regarding `CCN(CC)c1ccc2cc3ccc(=[N+](CC)CC)cc-3oc2c1`, under “endpoint: mean survival time, dose: 9.0 mg/kg/injection, schedule: Q01DX010 (ip), vehicle: saline”, the T/C was 106 % of control.
Consider `CC(C)(C)NC(=O)Cc1ccccc1`, for which the T/C is 95 % of control under setting [11], 97 % of control under setting [4] and 95 % of control under setting [5].
For the compound `C#CCCO`, the T/C reads like this: under setting [10], 113 % of control; under setting [7], 98 % of control; under setting [8], 105 % of control.
On to `Cc1ncc(C=O)c(C)c1O`, for which the T/C (endpoint: mean survival time, dose: 75.0 mg/kg/injection, schedule: Q01DX001 (ip), vehicle: other) is 101 % of control.
As for `C#CC(OC(=O)Nc1ccccc1)C1OC2OC(C)(C)OC2C2OC(C)(C)OC12` (stereo not given), the T/C under setting [11] was 97 % of control, the T/C under setting [4] was 93 % of control and the T/C under setting [5] was 97 % of control.
For `CC(=O)OCCN1CCN(CC/C=C2\c3ccccc3Sc3ccc(Cl)cc32)CC1`, the T/C runs as follows: (endpoint: mean survival time, dose: 3.13 mg/kg/injection, schedule: Q01DX009 (ip), vehicle: saline) 100 % of control; (endpoint: mean survival time, dose: 6.25 mg/kg/injection, schedule: Q01DX009 (ip), vehicle: saline) 116 % of control and 105 % of control; (endpoint: mean survival time, dose: 6.25 mg/kg/injection, schedule: Q04DX003 (ip), vehicle: saline) 98 % of control; under setting [9], 117 % of control and 123 % of control; (endpoint: mean survival time, dose: 12.5 mg/kg/injection, schedule: Q04DX003 (ip), vehicle: saline) 89 % of control; under setting [10], 117 % of control. The T/C was 98 % of control and 111 % of control (endpoint: mean survival time, dose: 25.0 mg/kg/injection, schedule: Q04DX003 (ip), vehicle: saline); 101 % of control (endpoint: mean survival time, dose: 50.0 mg/kg/injection, schedule: Q04DX003 (ip), vehicle: saline).
Turning to `CCCCCC(C)(C)O`, the T/C was 94 % of control (endpoint: mean survival time, dose: 100.0 mg/kg/injection, schedule: Q04DX003 (ip), vehicle: saline sonified); 90 % of control (endpoint: mean survival time, dose: 200.0 mg/kg/injection, schedule: Q04DX003 (ip), vehicle: saline sonified); 101 % of control (endpoint: mean survival time, dose: 400.0 mg/kg/injection, schedule: Q04DX003 (ip), vehicle: saline sonified).
As to `CC(=O)OC1CC2(O)C(CCC3(C)C(c4ccc(=O)oc4)CCC32O)C2(C)C1=CC(O)C1OC12` (stereo not given), the T/C was 100 % of control (endpoint: mean survival time, dose: 0.13 mg/kg/injection, schedule: Q01DX009 (sc), vehicle: steriod suspending solution); 97 % of control (endpoint: mean survival time, dose: 0.25 mg/kg/injection, schedule: Q01DX009 (sc), vehicle: steriod suspending solution); 100 % of control (endpoint: mean survival time, dose: 0.5 mg/kg/injection, schedule: Q01DX009 (sc), vehicle: steriod suspending solution); 89 % of control (endpoint: mean survival time, dose: 1.0 mg/kg/injection, schedule: Q01DX009 (sc), vehicle: steriod suspending solution).
